The values below are quoted from earlier work in US20040204482A1, “Extended release oral dosage form” (priority 2001, published 2004).

The conditions of this series: in vivo.

Consider `NC(=O)c1ccc(F)c2c1C[C@@H](N(C1CCC1)C1CCC1)CO2.O.O=C(O)C(O)C(O)C(=O)O` [(R)-3-N,N-dicyclobutylamino-8-fluoro-3,4-dihydro-2H-1-benzopyran-5-carboxamide hydrogen (2R,3R)-tartrate monohydrate], for which the “plasma elimination half-life, t1/2” value is 1.5 h.
